What is called IC50 is the concentration that inhibits the measured activity by half.

Data on 3 compounds can be found in US10246496B2, “Potassium channel blockers and use thereof in the treatment of autoimmune diseases” (MONASH UNIVERSITY, priority 2014, dated 2019).

One assay has as its target T1, mKv1.3 (Mus musculus, UniProt P16390).
T1 construct: expressed in transfected cells
Kind of assay: Whole-cell patch clamp electrophysiology, Kv1.3 channel currents. It is filed as cell-based. From the text: Data are presented as mean±s.e.m.
Electrophysiological analysis—Cells were studied using the whole-cell configuration of a standard patch-clamp technique at RT. The bath solution contained (in mM): 160 NaCl, 4.5 KCl, 2 CaCl2, 1 MgCl2, 10 HEPES, pH 7.2, 300 mOsm. […] Kv currents were elicited by repeated 200 ms depolarising pulses from a holding potential of −80 mV to 40 mV, applied every 30 seconds. The Port-a-Patch patch clamp system (Nanion Technologies GmbH, Munich, Germany) and NPC-1 chips with 2-3.5 MΩ resistance were also utilised in conjunction. IC50 values of Kv blockers were calculated by fitting the Hill equation to the reduction of peak current measured at 40 mV.
Thus, both analogues have reduced affinity to K^+ channels and show a relatively low level of selectivity for Kv1.3 over Kv1.1. The implication is that neither Ser-3 nor Glu-3 was able to greatly discriminate between Pro377 in Kv1.3 and the corresponding Ala in Kv1.1.
Background: Patch clamp records ionic current or voltage across a cell membrane.

A further assay addresses Kv1.3 (Mus musculus, UniProt P16390). As to conditions: literature values (Kalman 1998; Pennington 2009); spread = s.e.m.; read-out: Binding affinities (IC50) Kv1.3; cited from earlier work.

T1 sequence (P16390 whole entry): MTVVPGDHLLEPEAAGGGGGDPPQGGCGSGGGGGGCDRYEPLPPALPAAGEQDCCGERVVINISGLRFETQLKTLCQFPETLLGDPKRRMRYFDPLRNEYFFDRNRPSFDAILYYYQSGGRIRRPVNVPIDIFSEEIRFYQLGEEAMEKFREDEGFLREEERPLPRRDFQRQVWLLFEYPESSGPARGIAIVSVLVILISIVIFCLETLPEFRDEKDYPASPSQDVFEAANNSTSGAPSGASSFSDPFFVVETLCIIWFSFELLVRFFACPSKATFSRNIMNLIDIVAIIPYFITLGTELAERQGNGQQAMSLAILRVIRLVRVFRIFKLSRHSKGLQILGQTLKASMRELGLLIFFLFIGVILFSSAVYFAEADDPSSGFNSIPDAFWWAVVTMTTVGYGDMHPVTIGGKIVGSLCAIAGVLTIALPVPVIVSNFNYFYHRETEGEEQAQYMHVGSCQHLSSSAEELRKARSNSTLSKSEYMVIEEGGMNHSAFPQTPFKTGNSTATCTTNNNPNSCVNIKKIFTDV
Chain of Kv1.3 (P16390 whole entry): as above

`CC[C@H](C)[C@@H]1NC(=O)[C@@H](NC(=O)[C@H](CO)NC(=O)[C@H](CCCNC(=N)N)NC(=O)[C@H](CO)NC(=O)[C@H](CO)NC(=O)[C@H](CCC(=O)O)NC(=O)[C@@H](N)CCC(=O)O)CSSC[C@@H](C(N)=O)NC(=O)[C@H]([C@@H](C)O)NC(=O)CNC(=O)[C@@H]2CSSC[C@@H]3NC(=O)[C@H](CCC(N)=O)NC(=O)[C@H](Cc4ccccc4)NC(=O)[C@H](C)NC(=O)[C@H]([C@@H](C)O)NC(=O)[C@H](CSSC[C@H](NC(=O)[C@H](Cc4ccccc4)NC(=O)[C@H](CO)NC(=O)[C@H](CC(C)C)NC(=O)[C@H](CCCNC(=N)N)NC(=O)[C@H](Cc4ccc(O)cc4)NC(=O)[C@H](CCCCN)NC(=O)[C@H](CCSC)NC(=O)[C@H](CO)NC(=O)[C@H](Cc4c[nH]cn4)NC(=O)[C@H](CCCCN)NC3=O)C(=O)N[C@@H](CCCNC(=N)N)C(=O)N[C@@H](CCCCN)C(=O)N[C@@H]([C@@H](C)O)C(=O)N2)NC(=O)[C@H](CCCNC(=N)N)NC(=O)[C@H](CO)NC(=O)[C@H](CCCCN)NC(=O)[C@@H]2CCCN2C(=O)[C@H]([C@@H](C)CC)NC(=O)[C@H]([C@@H](C)O)NC(=O)[C@H](CC(=O)O)NC1=O` [[EESS]ShK] returned an IC50 on mKv1.3 of 0.404 ± 0.058 nM. The “higher affinity for Kv1.3 as compared to [ESSS]ShK” value at mKv1.3 (relative to [ESSS]ShK) turned out to be 1.6 fold. On mKv1.3, `CC[C@H](C)[C@@H]1NC(=O)[C@@H](NC(=O)[C@H](CO)NC(=O)[C@H](CCCNC(=N)N)NC(=O)[C@H](CO)NC(=O)[C@H](CO)NC(=O)[C@H](Cc2c[nH]c3ccccc23)NC(=O)[C@@H](N)CCC(=O)O)CSSC[C@@H](C(=O)O)NC(=O)[C@H]([C@@H](C)O)NC(=O)CNC(=O)[C@@H]2CSSC[C@@H]3NC(=O)[C@H](CCC(N)=O)NC(=O)[C@H](Cc4ccccc4)NC(=O)[C@H](C)NC(=O)[C@H]([C@@H](C)O)NC(=O)[C@H](CSSC[C@H](NC(=O)[C@H](Cc4ccccc4)NC(=O)[C@H](CO)NC(=O)[C@H](CC(C)C)NC(=O)[C@H](CCCNC(=N)N)NC(=O)[C@H](Cc4ccc(O)cc4)NC(=O)[C@H](CCCCN)NC(=O)[C@H](CCSC)NC(=O)[C@H](CO)NC(=O)[C@H](Cc4c[nH]cn4)NC(=O)[C@H](CCCCN)NC3=O)C(=O)N[C@@H](CCCNC(=N)N)C(=O)N[C@@H](CCCCN)C(=O)N[C@@H]([C@@H](C)O)C(=O)N2)NC(=O)[C@H](CCCNC(=N)N)NC(=O)[C@H](CO)NC(=O)[C@H](CCCCN)NC(=O)[C@@H]2CCCN2C(=O)[C@H]([C@@H](C)CC)NC(=O)[C@H]([C@@H](C)O)NC(=O)[C@H](CC(=O)O)NC1=O` [[EWSS]ShK] showed an IC50 of 0.033 ± 0.007 nM. Further, on mKv1.3 (relative to ShK-192), the “higher affinity for Kv1.3 than ShK-192” value is on record as 4 fold. For “RSCIDTIPKSRCTAFQCKHSMKYRLSFCRKTCGTC [ShK]”, the IC50 on Kv1.3 was 0.011 nM.
